In patent publication US20220000971A1, “METHODS AND COMPOUNDS FOR TARGETING SORTILIN RECEPTORS AND INHIBITING VASCULOGENIC MIMICRY” (TRANSFERT PLUS, S.E.C., priority 2018, published 2022):
“Also recorded” adds a separate entry of the source. Where a SMILES comes first, the peptide text is derived from it. Where no end group is shown, it is not given here. [ ]: non-standard residue; d: D form. The star is where a group is joined. X2 = COc1cccc2c1C(=O)c1c(O)c3c(c(O)c1C2=O)C[C@@](O)(C(=O)COC(=O)CC(C)(C)CC(=O)*)C[C@@H]3O[C@H]1C[C@H](N)[C@H](O)[C@H](C)O1; Nle = CCCC[C@H](N)C(=O)O

Key:
[1] = system: SK-Hep-1 hepatocellular carcinoma cells; conditions: Curcumin 3-30 μM, dose-dependent; cited from earlier work
[2] = molecular target: T1, P-glycoprotein (P-gp) efflux pump (Homo sapiens, UniProt P08183); assay: Uptake in MDCK-MDR1 cells overexpressing P-gp; format: in vitro ADME; conditions: with P-gp inhibitor Cyclosporin A
T1 construct: expressed in transfected cells; host or cells: MDCK-MDR1 cells
T1 sequence (P08183 whole entry): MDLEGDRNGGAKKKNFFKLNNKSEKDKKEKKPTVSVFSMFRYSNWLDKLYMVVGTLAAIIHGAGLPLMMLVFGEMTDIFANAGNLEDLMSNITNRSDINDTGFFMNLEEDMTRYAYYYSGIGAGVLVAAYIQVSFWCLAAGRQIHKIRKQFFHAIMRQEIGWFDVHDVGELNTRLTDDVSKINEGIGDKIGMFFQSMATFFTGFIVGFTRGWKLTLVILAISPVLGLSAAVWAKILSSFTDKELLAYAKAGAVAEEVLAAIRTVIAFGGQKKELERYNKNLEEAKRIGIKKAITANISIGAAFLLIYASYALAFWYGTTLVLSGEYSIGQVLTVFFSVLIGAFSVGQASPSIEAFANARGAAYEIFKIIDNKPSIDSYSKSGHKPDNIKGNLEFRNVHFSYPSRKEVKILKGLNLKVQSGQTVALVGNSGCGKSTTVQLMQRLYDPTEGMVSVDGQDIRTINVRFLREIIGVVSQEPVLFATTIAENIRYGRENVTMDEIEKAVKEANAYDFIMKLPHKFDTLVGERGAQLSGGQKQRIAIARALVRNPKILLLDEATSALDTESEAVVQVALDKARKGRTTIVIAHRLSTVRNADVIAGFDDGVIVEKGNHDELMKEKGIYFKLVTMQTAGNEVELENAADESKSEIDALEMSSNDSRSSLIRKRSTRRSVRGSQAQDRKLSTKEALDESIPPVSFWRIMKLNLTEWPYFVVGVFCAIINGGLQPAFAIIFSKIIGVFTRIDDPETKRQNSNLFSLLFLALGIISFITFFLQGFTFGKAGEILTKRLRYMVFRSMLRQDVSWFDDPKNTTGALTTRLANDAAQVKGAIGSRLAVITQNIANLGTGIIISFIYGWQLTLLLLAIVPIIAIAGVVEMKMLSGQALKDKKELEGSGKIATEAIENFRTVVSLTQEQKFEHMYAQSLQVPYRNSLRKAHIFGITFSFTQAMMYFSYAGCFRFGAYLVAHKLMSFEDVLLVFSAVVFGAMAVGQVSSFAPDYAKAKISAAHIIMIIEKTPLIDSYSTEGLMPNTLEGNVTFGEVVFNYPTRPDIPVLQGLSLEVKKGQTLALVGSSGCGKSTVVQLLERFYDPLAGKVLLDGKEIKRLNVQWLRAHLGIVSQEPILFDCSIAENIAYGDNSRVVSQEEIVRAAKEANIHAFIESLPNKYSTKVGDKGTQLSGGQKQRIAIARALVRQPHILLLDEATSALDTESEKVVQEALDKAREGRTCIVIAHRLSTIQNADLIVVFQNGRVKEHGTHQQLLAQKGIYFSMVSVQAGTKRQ

[3] = system: MDA-MB-231 cells; assay: Real-time cell migration, xCELLigence (MDA-MB-231); format: cell-based
Description: (§1) In vitro vasculogenic mimicry of cancer cells was assessed using a Matrigel tube formation assay. In brief, each well of a 96-well plate was pre-coated with Matrigel. ES-2 ovarian cancer or MDA-MB-231 TNBC cell suspensions were seeded on top of Matrigel. 3D-tubular structures were analyzed and quantified using Wimasis Analysis software. Real-time cell migration was evaluated using the ×CELLigence system. Sortilin gene silencing was performed with specific siRNA. Effects of Doxorubicin-KA-peptide conjugate (DoxKA) KBA-106 represented by formula Acetyl-GVRAK(doxorubicin)AGVRN(Nle)FK(doxorubicin)SESY (Formula (XXVIII)) and Docetaxel-KA-peptide conjugate (DoceKA) represented by formula Acetyl-GVRAK(docetaxel)AGVRN(Nle)FK(docetaxel)SESY (Formula (XXIII)) targeting Sortilin on vasculogenic mimicry and cell migration were determined.
MDA-MB-231 cells were used as a TNBC cell model for in vitro and in vivo xenograft (CD1 nude mice) assays. Cell migration was assessed using the ×CELLigence real-time system, whereas MTT assay was used for cell proliferation analysis. Apoptosis biomarkers expression was assessed by immunoblotting.

[4] = system: SKOV-3 ovarian cancer cell line; assay: Intracellular delivery (uptake) of DoxKA, SKOV-3; format: cell-based; conditions: Sortilin silencing or ligand competition
Description: (§2) As a proof-of-concept, Doxorubicin was conjugated to a Sortilin binding peptide (KA-peptide). In vitro, intracellular delivery of the Doxorubicin-KA-peptide conjugate (DoxKA) KBB-106 represented by formula Acetyl-GVRAK(doxorubicin)AGVRN(Nle)FK(doxorubicin)SESY (Formula (XXVIII)) was assessed in ES-2 and SKOV-3 ovarian cancer cell line models using flow cytometry and fluorescent microscopy. Sortilin gene silencing was performed with specific siRNA. DoxKA efficacy and safety were evaluated in vivo using ES-2 (CD1 nude mice) and SKOV-3 (athymic mice) subcutaneous xenograft models.

[5] = system: ES-2 ovarian cancer cell line; assay: Intracellular delivery (uptake) of DoxKA, ES-2; format: cell-based, human; conditions: Sortilin silencing or ligand competition
Description: as §2

[6] = system: ES-2 ovarian cancer cells; assay: In vitro vasculogenic mimicry, Matrigel tube formation assay (ES-2); format: cell-based, human; conditions: for inhibition of 3D-tubular structures (vasculogenic mimicry): ES-2 seeded on Matrigel, increasing concentrations; for effect on vasculogenic mimicry inhibition caused by KBB106: competitor added to KBB106
[7] = system: ES-2 ovarian cancer cells; assay: Real-time cell migration, xCELLigence (ES-2); format: cell-based, human
Description: as §1

[8] = system: human ovarian tumor xenografts; assay: DoxKA efficacy and safety in ES-2 and SKOV-3 subcutaneous xenograft models; format: in vivo, mice
Description: as §2

[9] = molecular target: T2, Sortilin receptor (Homo sapiens, UniProt Q99523); assay: Cell surface binding assay with anti-Sortilin-Alexa488; conditions: antibody 1 μg/ml, 30 minutes; ES-2 cells; competitor present
T2 construct: endogenous in cells; host or cells: ES-2 human ovarian cancer cells
T2 sequence (Q99523 78-831): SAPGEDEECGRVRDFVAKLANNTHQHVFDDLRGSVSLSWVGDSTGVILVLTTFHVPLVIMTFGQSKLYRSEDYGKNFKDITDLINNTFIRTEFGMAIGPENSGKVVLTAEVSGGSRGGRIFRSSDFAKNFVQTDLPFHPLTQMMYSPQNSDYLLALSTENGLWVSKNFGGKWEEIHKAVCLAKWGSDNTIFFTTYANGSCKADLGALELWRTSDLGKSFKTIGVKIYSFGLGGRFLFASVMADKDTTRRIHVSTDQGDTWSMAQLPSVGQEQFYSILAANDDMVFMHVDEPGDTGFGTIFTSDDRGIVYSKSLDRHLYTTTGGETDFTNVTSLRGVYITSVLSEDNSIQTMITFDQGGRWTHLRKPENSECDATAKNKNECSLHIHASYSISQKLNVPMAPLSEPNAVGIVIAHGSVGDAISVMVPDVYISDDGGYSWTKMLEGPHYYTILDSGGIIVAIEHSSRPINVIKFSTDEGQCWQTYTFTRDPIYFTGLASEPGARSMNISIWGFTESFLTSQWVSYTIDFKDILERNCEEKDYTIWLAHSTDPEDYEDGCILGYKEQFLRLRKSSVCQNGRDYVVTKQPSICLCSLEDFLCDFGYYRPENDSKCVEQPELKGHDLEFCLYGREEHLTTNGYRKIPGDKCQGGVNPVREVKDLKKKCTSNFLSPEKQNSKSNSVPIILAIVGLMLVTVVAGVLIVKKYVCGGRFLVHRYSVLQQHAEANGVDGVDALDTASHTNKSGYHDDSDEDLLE
Description: Labeling of anti-Sortilin antibody was performed with the Alexa Fluor 488 protein labeling kit from Invitrogen according to manufacturer's instructions.

[10] = system: MDA-MB-231 cells; assay: Cell death / apoptosis (Annexin V-FITC/PI); format: cell-based; conditions: SORT1 ligand competition
Description: MDA-MB-231 cells treated for 5 hours with control (vehicle) or with increasing concentrations of Docetaxel or DoceKA. Cells were then harvested and the rate of apoptosis was determined following staining with Annexin V-FITC and propidium iodide (PI). Cells were analyzed by flow cytometry.

[11] = molecular target: T3, Sortilin receptor (human, UniProt Q99523 78-831); assay: inferred from the vasculogenic mimicry assay of ES-2 cells, excess KBP106 against KBB106
T3 construct: whole, on cells; also called SORT1
T3 sequence (looked up): T2 sequence (Q99523 78-831)

Which “inhibition of tube formation” value [1] does the source give for `COc1cc(/C=C/C(=O)CC(=O)/C=C/c2ccc(O)c(OC)c2)ccc1O` [Curcumin, diferuloylmethane] here?
Its value is 18-92%.

With `CCCC[C@H](NC(=O)[C@H](CC(N)=O)NC(=O)[C@H](CCCNC(=N)N)NC(=O)[C@@H](NC(=O)CNC(=O)[C@H](C)NC(=O)[C@H](CCCCNC(=O)CC(C)(C)CC(=O)OCC(=O)[C@]1(O)Cc2c(O)c3c(c(O)c2[C@@H](O[C@H]2C[C@H](N)[C@H](O)[C@H](C)O2)C1)C(=O)c1c(OC)cccc1C3=O)NC(=O)[C@H](C)NC(=O)[C@H](CCCNC(=N)N)NC(=O)[C@@H](NC(=O)CNC(C)=O)C(C)C)C(C)C)C(=O)N[C@@H](Cc1ccccc1)C(=O)N[C@@H](CCCCNC(=O)CC(C)(C)CC(=O)OCC(=O)[C@]1(O)Cc2c(O)c3c(c(O)c2[C@@H](O[C@H]2C[C@H](N)[C@H](O)[C@H](C)O2)C1)C(=O)c1c(OC)cccc1C3=O)C(=O)N[C@@H](CO)C(=O)N[C@@H](CCC(=O)O)C(=O)N[C@@H](CO)C(=O)N[C@@H](Cc1ccc(O)cc1)C(=O)O` [DoxKA, Acetyl-GVRAK(doxorubicin)AGVRN(Nle)FK(doxorubicin)SESY] (Ac-GVRAK(X2)AGVRN[Nle]FK(X2)SESY-OH) as the molecule, how does the “uptake in P-gp overexpressing cells” value [2] read?
Its value is “unaffected by the P-gp inhibitor Cyclosporin A”.

And the cell migration [3]?
The cell migration was “inhibited”.

And the uptake [4]?
Its uptake is “reduced when Sortilin expression was specifically silenced or upon competition with the Sortilin ligands Neurotensin and Progranulin”.

What about the uptake [5] of the same molecule?
Its uptake is “reduced when Sortilin expression was specifically silenced or upon competition with the Sortilin ligands Neurotensin and Progranulin”.

What about the “concentration at which total number of loops and total tube length are inhibited” value ([6]; ES-2 on Matrigel) of the same molecule?
The value was “inhibited at low nM concentrations”.

And the “vasculogenic mimicry inhibition compared to unconjugated drug” value ([6]; ES-2 on Matrigel, 12 hrs, equivalent concentration of free drug (Docetaxel 600 pM))?
The value was “stronger inhibition of vasculogenic mimicry than unconjugated free drugs”.

What about the “inhibition of 3D-tubular structures (vasculogenic mimicry)” value (“inhibition … (vasculogenic mimicry)” below) [6] of the same molecule?
The value was “strongly inhibited; also recorded: inhibited”.

What about the “inhibition … (vasculogenic mimicry)” value ([6]; listed as KBB106) of the same molecule?
The value was “vascukogenic mimicry inhibition”.

And the “IC50 values for vasculogenic mimicry inhibition” value ([6]; Example 2, ovarian cancer and TNBC cells)?
Its value is “low nM to pM”.

And the cell migration [7]?
The cell migration was “inhibited”.

And the “inhibition of tumor xenografts growth compared to unconjugated Doxorubicin” value ([8]; equivalent dose)?
The value was “more potent inhibition”.

And the “tolerability compared to unconjugated Doxorubicin” value ([8]; equivalent dose)?
The value was “better tolerated (absence of leukopenia and neutropenia)”.

What about the “accumulation in healthy tissues compared to Doxorubicin” value ([8]; in vivo, heart and ovary) of the same molecule?
Its value is “decreased accumulation in healthy tissues such as heart and ovary”.

Which results are given for “Acetyl-GVRAKAGVRN(Nle)FKSESY (Ac-GVRAKAGVRN[Nle]FKSESY) [KBP106]”?
effect on binding of anti-Sortilin-Alexa488 at the cell surface [9]: strongly reduced the binding; effect on vasculogenic mimicry inhibition caused by KBB106 ([6]; ES-2): prevents vascukogenic mimicry inhibition by KBB106; effect of peptide alone on vasculogenic mimicry ([6]; up to 50 μM, ES-2, 24 hours): no significant effect

For “Acetyl-GVRAKAGVRN(Nle)FKSESYC(aldoxorubicin) [AldoxKA]”, which “inhibition … (vasculogenic mimicry)” value [6] is on record?
The value was “inhibited”.

Which “effect on binding of anti-Sortilin-Alexa488 at the cell surface” value [9] does the source give for “Acetyl-YKSLRRKAPRWDAPLRDPALRQLL (Ac-YKSLRRKAPRWDAPLRDPALRQLL) [KBP201]” here?
The value was “strongly reduced the binding”.

What does the source list for “progranulin: Sortilin ligand [reference compound]”?
effect on binding of anti-Sortilin-Alexa488 at the cell surface [9]: inhibited; effect on apoptotic and anti-migratory effects of DoceKA [10]: reversed; effect of Sortilin ligand alone on vasculogenic mimicry ([6]; ES-2, 12 hours): do not effect vasculogenic mimicry; effect on vasculogenic mimicry inhibition caused by KBB106 ([6]; ES-2): reverses vasculogenic mimicry inhibition

B1: KBP-106: Acetyl-GVRAKAGVRN(Nle)FKSESY (peptide)
peptide: Ac-GVRAKAGVRN[Nle]FKSESY
notes: also called Katana peptide; KA-peptide
Does B1 bind [11]?
Result: binds
